Assay results published in patent US11225460B2, “Pyrrolidineamide derivatives and uses thereof” (SUNSHINE LAKE PHARMA CO., LTD., priority 2019, dated 2022).

Key:
[1] = biological target: T1, Human recombinant monoamine oxidase A (Homo sapiens, UniProt P21397); assay: Inhibitory effect on the activity of monoamine oxidase A; assay type: biochemical; conditions: human recombinant MAO-A, substrate p-tyramine hydrochloride
T1 construct: host or cells: Sf9 cells
T1 sequence (P21397 1-527): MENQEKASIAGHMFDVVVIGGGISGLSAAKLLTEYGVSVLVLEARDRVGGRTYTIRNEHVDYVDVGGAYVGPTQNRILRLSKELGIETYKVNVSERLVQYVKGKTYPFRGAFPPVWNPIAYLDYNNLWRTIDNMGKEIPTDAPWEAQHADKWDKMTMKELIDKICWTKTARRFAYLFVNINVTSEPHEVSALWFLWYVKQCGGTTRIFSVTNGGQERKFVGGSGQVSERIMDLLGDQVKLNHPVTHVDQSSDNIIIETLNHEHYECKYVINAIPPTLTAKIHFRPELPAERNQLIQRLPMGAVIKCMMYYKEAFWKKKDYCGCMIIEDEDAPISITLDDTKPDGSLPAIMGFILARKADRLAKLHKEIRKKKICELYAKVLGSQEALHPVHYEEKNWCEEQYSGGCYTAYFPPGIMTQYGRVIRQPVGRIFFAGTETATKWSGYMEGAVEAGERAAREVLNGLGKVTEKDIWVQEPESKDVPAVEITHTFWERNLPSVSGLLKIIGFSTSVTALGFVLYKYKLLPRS
Protocol: Human recombinant monoamine oxidase A expressed in Sf9 cells was used in the test system. In the experiment, firstly, the recombinant monoamine oxidase A was dissolved in the pre-configured HEPES buffer (0.8% NaCl, 0.037% KCl, 0.0135% Na2HPO4.2H2O, 0.1% Glucan, 0.5% HEPES, pH=7.0) at a concentration of 0.3 μg/μL. To each well of a 384-well plate was added 10 μL of monoamine oxidase A solution, and the test compound with different concentrations (the final concentration of DMSO was 1%) (10 gradient concentrations were 10 mM, 1 mM, 100 μM, 10 μM, 1 μM, 100 nM, 10 nM, 1 nM, 0.1 nM, 0.01 nM) were added into the wells, respectively. The standard reference compound was Clorgyline, the plate was incubated at room temperature for 15 min. Then, each well filled with […] (p-Tyramine hydrochloride, 1 mM) was incubated at room temperature for 60 min. Then 20 μL of fluorescein detection reagent was added to each well, which was fully blended and incubated at room temperature for 20 minutes to produce stable fluorescence signal. The fluorescence signal was read by fluorescein labeling instrument, and the value was expressed by relative light intensity (RLU). The inhibitory rate on enzyme activity was calculated according to the experimental results, the calculated formula: Inh %=(Max−Signal)/(Max−Min)*100, wherein Max was the detected value at the maximum concentration of the sample, Min was the detected value at the minimum concentration of the sample, and Signal was the detected value at the current concentration of the sample.
The standard curve was obtained through the series concentration by experimental test to calculate the IC50.

[2] = Pharmacokinetic evaluation after intravenous or gavage administration in rats; assay type: in vivo, SD rats
Protocol: (§1) The LC-MS/MS system comprises Agilent 1200 series vacuum degassing furnace, quaternary pumps, well-plate autosampler, thermostatted column compartment, the API4000Qtrap Triple Quadrupole Mass Spectrometer with an electrospray ionization (ESI) source. Quantitative analysis was carried out using MRM mode. The parameters for MRM transitions are in Table 2.
(§2) Analysis was carried out on waters xbridge C18 (2.1×50 mm, […] column, 0.5 μL of sample), the analytic conditions are mobile phases cosisting of water+2 mM ammonium formate+0.1% formic acid (Phase A) and methanol+2 mM ammonium formate+0.1% formic acid (Phase B). The flow rate was 0.4 mL/min. And the gradient of Mobile phase was in Table 3.
(§3) Each animal species was divided into two groups: one was administered intravenously and the other was administered intragastrically. The compounds disclosed herein were administered in form of a solution containing 5% DMSO+5% Kolliphor HS15+90% Saline. For the group of intravenous administration, the administration dose was 1 mg/kg, and vein blood samples (0.3 ml) were collected at the time points of 0.083, 0.25, 0.5, 1.0, 2.0, 4.0, 6.0, 8.0 and 24 h after drug administration, then plasma solutions were collected by centrifuging each blood sample at 3000 rpm or 4000 rpm for 10 minutes and kept at −20° C. or −70° C. For the group of intragastric administration, the administration dose was 5 mg/kg, and vein blood samples (0.3 mL) were collected at the time points of 0.25, 0.5, 1.0, 2.0, 4.0, 6.0, 8.0 and 24 h after drug administration, then plasma solutions were collected by centrifuging each blood sample at 3000 rpm or 4000 rpm for 10 minutes and kept at −20° C. or −70° C.
(§4) 20 μL of plasma was blended with 120 μl, 50 ng/ml propranolol standard water solution, then the mixture was extracted with 1.0 mL methyl tert-butyl ether (MTBE), 0.7 mL of supernatant was dried by blow with nitrogen and then dissolved again with 220 μL methanol water (methanol/water (v/v)=1/1). LC-MS/MS method was used to detect the concentration of the target compounds, and […] was used to calculate the pharmacokinetic parameters.

[3] = Pharmacokinetic evaluation after intravenous or gavage administration in dogs; assay type: in vivo, Beagle dogs; conditions: for AUC(0-inf) / AUC(0-t) / Cmax / MRT inf / Tmax / clearance / half-life: beagle, dog, plasma
Protocol: as §1, §2, §3, §4

[4] = Pharmacokinetic evaluation after intravenous or gavage administration in monkeys; assay type: in vivo
Protocol: as §1, §2, §3, §4

[5] = SD, rat, plasma, iv, i.v group, 1 mg/kg
[6] = SD, rat, plasma, po, i.g group, 5 mg/kg
[7] = monkey, plasma, iv, i.v group, 1 mg/kg
[8] = monkey, plasma, po, i.g group, 5 mg/kg

For NC(=O)[C@@H]1C[C@H](F)CN1Cc1ccc(OCc2cccc(F)c2)cc1 [Example 1, (2S,4S)-4-fluoro-1-(4-(3-fluorobenzyloxy)benzyl)pyrrolidine-2-formamide], the IC50 [1] was 46 µM, the AUC(0-inf) [2, 5] was 507 ng·h/mL and the Cmax [2, 5] was 690 ng/mL. The MRT inf [2, 5] was 0.694 h, the Tmax [2, 5] was 0.083 h and the AUC(0-inf) [2, 6] was 1400 ng·h/mL. It also gave an AUC(0-t) [2, 6] of 1400 ng·h/mL, a Cmax [2, 6] of 1000 ng/mL and an MRT inf [2, 6] of 1.08 h. It also gave a Tmax [2, 6] of 0.333 h, a half-life [2, 6] of 0.565 h and an F ([2]; i.g group, 5 mg/kg) of 55.2%. For the same compound, the AUClast ([2]; i.v group, 1 mg/kg) was 505 ng·h/mL, the Cl ([2]; i.v group, 1 mg/kg) was 32.9 mL/min/kg and the T1/2 ([2]; i.v group, 1 mg/kg) was 0.67 h. For the same compound, the AUC(0-inf) ([3]; iv, i.v group, 1 mg/kg) was 1500 ng·h/mL, the AUC(0-t) ([3]; iv, i.v group, 1 mg/kg) was 1480 ng·h/mL and the Cmax ([3]; iv, i.v group, 1 mg/kg) was 1230 ng/mL. For the same compound, the MRT inf ([3]; iv, i.v group, 1 mg/kg) was 2.77 h, the Tmax ([3]; iv, i.v group, 1 mg/kg) was 0.083 h and the clearance ([3]; iv, i.v group, 1 mg/kg) was 11.1 mL/min/kg. It also gave a half-life ([3]; iv, i.v group, 1 mg/kg) of 5.05 h, an AUC(0-inf) ([3]; po, i.g group, 5 mg/kg) of 4990 ng·h/mL and an AUC(0-t) ([3]; po, i.g group, 5 mg/kg) of 4930 ng·h/mL. For the same compound, the Cmax ([3]; po, i.g group, 5 mg/kg) was 1730 ng/mL, the MRT inf ([3]; po, i.g group, 5 mg/kg) was 2.98 h and the Tmax ([3]; po, i.g group, 5 mg/kg) was 0.833 h. For the same compound, the half-life ([3]; po, i.g group, 5 mg/kg) was 3.27 h, the F ([3]; i.g group, 5 mg/kg) was 66.5% and the AUClast ([4]; i.g group, 5 mg/kg) was 11300 ng·h/mL. The Cmax ([4]; i.g group, 5 mg/kg) was 2280 ng/mL, the F ([4]; i.g group, 5 mg/kg) was 107.1% and the T1/2 ([4]; i.g group, 5 mg/kg) was 2.8 h. It also gave an AUClast ([4]; i.v group, 1 mg/kg) of 2120 ng·h/mL, a Cl ([4]; i.v group, 1 mg/kg) of 7.54 mL/min/kg and a Cmax ([4]; i.v group, 1 mg/kg) of 924 ng/mL. The T1/2 ([4]; i.v group, 1 mg/kg) was 1.77 h, the AUC(0-inf) [4, 7] was 2210 ng·h/mL and the MRT inf [4, 7] was 2.35 h. The Tmax [4, 7] was 0.083 h, the AUC(0-inf) [4, 8] was 11400 ng·h/mL and the MRT inf [4, 8] was 4.33 h. The Tmax [4, 8] was 1 h.
In the case of NC(=O)[C@@H]1C[C@H](F)CN1Cc1ccc(OCc2cccc(F)c2)cc1F [Example 3, (2S,4S)-4-fluoro-1-(2-fluoro-4-(3-fluorobenzyloxy)benzyl)pyrrolidine-2-formamide], the IC50 [1] is reported as 29 µM, the AUC(0-inf) [2, 5] is reported as 582 ng·h/mL and the AUC(0-t) [2, 5] is reported as 582 ng·h/mL. It also gave a Cmax [2, 5] of 681 ng/mL, an MRT inf [2, 5] of 0.778 h and a Tmax [2, 5] of 0.083 h. For the same compound, the clearance [2, 5] was 28.7 mL/min/kg, the half-life [2, 5] was 0.712 h and the AUC(0-inf) [2, 6] was 1550 ng·h/mL. The AUC(0-t) [2, 6] was 1520 ng·h/mL, the Cmax [2, 6] was 700 ng/mL and the MRT inf [2, 6] was 2.11 h. It also gave a Tmax [2, 6] of 0.625 h, a half-life [2, 6] of 1.23 h and an F ([2]; i.g group, 5 mg/kg) of 53.3%. It also gave an AUC(0-inf) ([3]; iv, i.v group, 1 mg/kg) of 979 ng·h/mL, an AUC(0-t) ([3]; iv, i.v group, 1 mg/kg) of 977 ng·h/mL and a Cmax ([3]; iv, i.v group, 1 mg/kg) of 1490 ng/mL. For the same compound, the MRT inf ([3]; iv, i.v group, 1 mg/kg) was 0.871 h, the Tmax ([3]; iv, i.v group, 1 mg/kg) was 0.083 h and the clearance ([3]; iv, i.v group, 1 mg/kg) was 17 mL/min/kg. For the same compound, the half-life ([3]; iv, i.v group, 1 mg/kg) was 1.13 h, the AUC(0-inf) ([3]; po, i.g group, 5 mg/kg) was 2450 ng·h/mL and the AUC(0-t) ([3]; po, i.g group, 5 mg/kg) was 2440 ng·h/mL. The Cmax ([3]; po, i.g group, 5 mg/kg) was 1380 ng/mL, the MRT inf ([3]; po, i.g group, 5 mg/kg) was 1.44 h and the Tmax ([3]; po, i.g group, 5 mg/kg) was 0.5 h. The half-life ([3]; po, i.g group, 5 mg/kg) was 1.09 h, the F ([3]; i.g group, 5 mg/kg) was 50.1% and the F ([4]; i.g group, 5 mg/kg) was 69.1%. The AUC(0-inf) [4, 7] was 3260 ng·h/mL, the AUC(0-t) [4, 7] was 3240 ng·h/mL and the MRT inf [4, 7] was 3.41 h. The Tmax [4, 7] was 0.083 h, the clearance [4, 7] was 5.12 mL/min/kg and the half-life [4, 7] was 2.24 h. It also gave a Cmax ([4]; monkey, plasma, iv, i.v group, 1 mg/kg, read-out: Cmax) of 1610 ng/mL, an AUC(0-inf) [4, 8] of 11200 ng·h/mL and an AUC(0-t) [4, 8] of 11200 ng·h/mL. The MRT inf [4, 8] was 5.02 h, the Tmax [4, 8] was 1 h and the half-life [4, 8] was 3.39 h. For the same compound, the Cmax ([4]; monkey, plasma, po, i.g group, 5 mg/kg, read-out: Cmax) was 2010 ng/mL.
